Publication PMC10218704, “A Novel Blood–Brain Barrier-Penetrating and Vascular-Targeting Chimeric Peptide Inhibits Glioma Angiogenesis” (International Journal of Molecular Sciences, 2023)
Ends that are not written are not given here.

Assays:
[1] = system: HUVECs; test: Tube formation assay on Matrigel; assay type: cell-based, human; conditions: 160 μmol/L, VEGF-A165 30 ng/mL, 6 h, n = 3
Procedure: Matrigel was added to 96-well plates with 60 min of incubation at 37 °C for solidification. […] The tubular structures were observed under an inverted microscope and the total branching lengths were calculated by the ImageJ V 1.8.0 software.

[2] = Body weight and physiological status of glioma-bearing nude mice; assay type: in vivo; conditions: 20 mg/kg/day i.v., 11 days
Procedure: The orthotopic U87-mCherry-luc glioma-bearing nude mice were randomly assigned to 6 groups (n = 5) according to the bioluminescence intensity of glioma measured on day 4. […] The bioluminescence intensity was measured on days 4, 7, 11, and 14, respectively. Nude mice were weighed daily. On day 15, the mice were sacrificed, and the glioma-bearing brains were harvested. The brain tissues were fixed with 4.0% paraformaldehyde, embedded in paraffin, and cut into slices. The TUNEL staining and CD31 immunohistochemical staining were conducted according to standard histological procedures.

[3] = system: HUVECs; test: Wound healing assay (cell migration); assay type: cell-based, human; conditions: 160 μmol/L; VEGF-A165 30 ng/mL; at 24 h or 48 h after scratch; n = 3
Procedure: HUVECs were firstly seeded into 6-well culture plates (3 × 10^5 cells/well). Following overnight incubation, the monolayer HUVECs were scraped by pipette tips of 200 μL and washed by cold PBS. […] The cells were incubated for another 48 h. Images were captured at 0 h, 24 h, and 48 h using an inverted microscope. The cell migration rate was counted by the ImageJ software.

[4] = system: red blood cells; test: Hemolysis assay; conditions: 2.5–640 μmol/L; 37 °C, 1 h; 540 nm; mouse red blood cells; n = 3
Procedure: The fresh blood of mice was centrifuged at 2000 r/min for 10 min, and the upper layer of serum was discarded, then mixed with normal saline and centrifuged at 2000 r/min for 10 min, repeated three times, and the supernatant was removed to obtain the lower layer of red blood cells. Then, 1 mL of red blood cells was diluted to 50 mL with normal saline. […] The samples were incubated at 37 °C for 1 h, centrifuged at 2000 r/min for 10 min, and photographed. Light absorption of samples was measured at 540 nm on a microplate reader.
Cell hemolysis rate (%) = (OD experimental group − negative control group)/(OD positive control group − negative control group) × 100%.

[5] = compared with TAT or AT7 alone; cited from earlier work
Excerpt: Intracranial delivery of therapeutic agents is primarily hindered by the BBB [24]. The intercellular tight junction caused by the BBB restricts the passive diffusion of almost all large-molecule and more than 98% of small-molecule drugs from peripheral blood circulation to the brain tissue. TAT ([…]), one of the most promising cationic cell-penetrating peptides (CPPs), has been widely applied in drug delivery due to its high efficiency to facilitate the tissue penetration and internalization of cargos and break through a variety of biological barriers, such as cell membrane ...

[6] = system: SRC; test: Western blot, phosphorylation of SRC; assay type: cell-based, human; conditions: 320 μmol/L, 90 min, VEGF-A165 30 ng/mL, HUVECs, vs control, AT7, TAT, n = 3
Procedure: For Western blotting analysis, HUVECs were seeded into 6-well culture plates at 3 × 10^5 cells/well and incubated overnight. […] Two control groups (F-12K medium in the absence or presence of VEGF-A165) were set. The cells were washed with cold PBS and lysed with lysis buffer (protease and phosphatase inhibitors) on the ice for 30 min, and then centrifuged at 4 °C for 15 min at 14,000 r/min. The supernatant was collected, and its total protein concentration was determined by the BCA protein assay kit. Equal amounts of proteins were separated by 10% SDS-PAGE gels and transferred to polyvinylidene difluoride (PVDF) membranes. After blocking with 5% non-fat milk for 1 h, the membranes were incubated with specific antibodies at 4 °C overnight. Then, the membranes were washed with TBST (Tris-Buffered Saline with 0.1% Tween 20) and incubated with horseradish peroxidase (HRP)-conjugated secondary antibody for 1 h at room temperature. The proteins on the membranes were visualized with enhanced chemiluminescence agents.

[7] = system: intracranial U87-mCherry-luc glioma; test: Glioma distribution and vascular targeting in vivo (FITC fluorescence, CD31 immunostaining); parameters: species or system nude mice; conditions: 1 h
Excerpt: The orthotopic U87-mCherry-luc glioma-bearing nude mice model was firstly established. Female nude mice were anesthetized by isoflurane and fixed on a ventricle stereotaxic instrument. U87-mCherry-luc cells were collected after trypsin digestion and then injected into the right striatum of the brain of nude mice. On the 4th day after the surgery, the bioluminescence of the glioma tissue was detected by the IVIS kinetic imaging system (Lumina II; Caliper, MA, USA). The mice were randomly divided into four groups according to the bioluminescence intensity (n = 3). FITC-AT7, FITC-TAT, and FITC-TAT-AT7 (30 mg/Kg) were injected into mice via the tail vein on day 8. The control group was only injected with normal saline. After 1 h, the mice were sacrificed, and the brains were collected and fixed with 4% paraformaldehyde for 24 h. Then, the fixed brains were dehydrated by 15% and 30% sucrose, successively, frozen with O.C.T. embedding reagent, and then cut into frozen brain tissue slices. Then, sections of slices were incubated with rabbit anti-murine CD31 antibody, followed by treatment with Cy5.5-labeled goat anti-rabbit IgG secondary antibody. The slices were further stained with DAPI for 5 min and observed using a confocal microscope.

[8] = system: NRP-1; parameters: method as in 2 sources, ref 21 = [21]; PMID 17983687; doi:10.1016/j.peptides.2007.09.013; 21. Starzec A. Ladam P. Vassy R. Badache S. Bouchemal N. Navaza A. du Penhoat C.H. Perret G.Y. Structure-function analysis of the antiangiogenic ATWLPPR peptide inhibiting VEGF (165) binding to neurop ||| ref 36 = [36]; PMID 11327725; doi:10.1006/bbrc.2001.4790; 36. Jia H. Lohr M. Jezequel S. Davis D. Shaikh S. Selwood D. Zachary I. Cysteine-rich and basic domain HIV-1 Tat peptides inhibit angiogenesis and induce endothelial cell apoptosis Biochem. Biophys. R; conditions: C-terminal LPPR essential; cited from earlier work
[9] = FITC-labeled peptide 30 mg/kg, tail vein, n = 3

Row | Molecule | formation of tubular structures [1] | total branch length of the tubular structure ([1]; vs AT7, TAT, and TAT+AT7 groups) | rate of weight loss [2] | toxicity and safety in nude mice ([2]; body weight and physiological status, 14th day) | migration rate [3] | hemolysis [4] | hemolysis rate [4] | BBB-penetration capability [5] | phosphorylation level of SRC [6] | co-localization with glioma blood vessels (CD31) [7, 9] | green (FITC) fluorescence intensity in glioma tissue [7, 9] | accumulation and distribution in the glioma region ([7]; FITC-labeled peptide, intravenous, discussion) | effect on VEGF-A165 binding to NRP-1 [8]
1 | CC(C)C[C@H](NC(=O)[C@H](Cc1c[nH]c2ccccc12)NC(=O)[C@@H](NC(=O)[C@H](C)NC(=O)[C@H](CS)NC(=O)[C@H](CCCNC(=N)N)NC(=O)[C@H](CCCNC(=N)N)NC(=O)[C@H](CCCNC(=N)N)NC(=O)[C@H](CCC(N)=O)NC(=O)[C@H](CCCNC(=N)N)NC(=O)[C@H](CCCNC(=N)N)NC(=O)[C@H](CCCCN)NC(=O)[C@H](CCCCN)NC(=O)[C@@H](N)CCCNC(=N)N)[C@@H](C)O)C(=O)N1CCC[C@H]1C(=O)N1CCC[C@H]1C(=O)N[C@@H](CCCNC(=N)N)C(=O)O [TAT-AT7] | significantly inhibit the formation of tubular structures in HUVECs | significantly reduced | slower than that in the normal saline group | less toxicity and better safety for nude mice | significantly lower than that of the control, AT7, TAT, and TAT+AT7 groups | did not cause obvious hemolysis | lower than 5% | stronger BBB-penetration capabilities | significantly inhibited the phosphorylation level | obviously co-localized with glioma blood vessels | significantly higher than that in the AT7 and TAT groups | higher accumulation and deeper distribution in the glioma region after intravenous injection compared to TAT and TAT+AT7 | –
2 | ATWLPPR [AT7, ATWLPPR] | – | – | – | – | – | – | – | – | – | – | – | – | inhibitory effect of AT7 on VEGF-A165 binding to NRP-1
